# Assay: Solubility Test (solubility in water)
# Format: physicochemical
# Excerpt: Solubility in water of inclusion compound of cyclodextrin with compound A or compound C is shown below. As the result, the inclusion compound is extremely more soluble in water than the starting compound.
row,Compound,solubility [µg/mL]
1,"O=C(O)[C@@H]1CS[C@H](c2ccccc2O)N1C(=O)CCS [Compound A, (2R,4R)-2-(2-hydroxyphenyl)-3-(3-mercaptopropanoyl)-4-thiazolidinecarboxylic acid]",1600
2,"O=C(O)[C@@H]1CSC(c2ccccc2O)N1C(=O)CCSSCCC(=O)N1C(c2ccccc2O)SC[C@H]1C(=O)O (stereo partly drawn) [Compound C, (4R,4'R)-3,3'-[3,3'-dithiobis(propanoyl)]bis[2-(2-hydroxyphenyl)-4-thiazolidinecarboxylic acid]]",100

# — US4482709A, “Inclusion compounds of cyclodextrin with sulfur-containing compounds” (Santen Pharmaceutical Co., Ltd., priority 1981, dated 1984)
